# Results from patent US11976280B2, “SMAC/Diablo inhibitors useful for treating cancer” (THE NATIONAL INSTITUTE FOR BIOTECHNOLOGY IN THE NEGEV LTD., priority 2017, dated 2024).
# d = 2'-deoxy (DNA); r = 2'-OH (RNA)
# What was measured:
# [1] = test system: HeLa, A549, and H358 cells; assay: Cellular ATP levels, luciferase-based assay (CellTiter-Glo); type: cell-based, human; settings: 50 nM
# Procedure: Cellular ATP levels were estimated using the luciferase-based assay (CellTiter-Glo, Promega). Cells were transfected with si-hSMAC and 48 h and 72 h post-transfection, were washed twice with PBS and seeded in 96-well plates at densities of 5×10^4 cells/ml (A549, HeLa cells and H358, non-small cell lung cancer cells). ATP levels were assayed according to the manufacturer's protocol and luminescence was recorded using an Infinite M1000 plate reader.
# [2] = test system: A549 lung cancer xenografts; assay: Histology and IHC of residual tumor morphology (H&E, SP-C, podoplanin, CD31, α-SMA); type: in vivo, mice
# Procedure: Tissue microarrays (MC5003, LC807) containing cancer and normal tissues purchased from US Biomax (US Biomax, Inc. USA) and formalin-fixed and paraffin-embedded tumor sections were immunohistochemistry (IHC) stained. Sections were deparaffinized using xylene and a graded ethanol series. Endogenous peroxidase activity was blocked by incubating the sections in 3% H2O2 for 10 minutes. Antigen retrieval was performed in 0.01M citrate buffer (pH 6.0) in 95° C.-98° C. for 20 minutes. After washing sections with PBS containing 0.1% Triton-X100 (pH 7.4), non-specific antibody binding was reduced by incubating the sections in 10% normal goat serum for 2 hr. After decanting excess serum, sections were incubated overnight at 4° C. with primary antibodies (sources and dilutions are detailed in Supplementary Table 1). Sections were washed with PBST. For IHC, endogenous peroxidase activity was blocked by incubating the sections in 3% H2O2 for […]. After washing thoroughly with PBST, the sections were incubated for 2 h with anti-mouse or anti rabbit (1:250) secondary antibodies conjugated to HRP, as appropriate. Sections were washed five times in PBST and the peroxidase reaction was subsequently visualized by incubating with 3,3-diaminobenzidine (DAB) (ImmPact-DAB, Burlingame, CA). After rinsing in water, the sections were counterstained with hematoxylin, and mounted with Vectashield mounting medium (Vector Laboratories, Burigame, CA). Finally, the sections were observed under a microscope (Leica DM2500) and images were collected at 20× magnification with the same light intensity and exposure time.
# These features can be interpreted as indicative of the cancer cells in si-hSMAC-A-TTs having undergone a differentiation process. To investigate this point, we analyzed the expression of the pulmonary-associated surfactant protein c (SP-C) ([…]), a component of the surface-active lipoprotein complex that is required for proper biophysical function of the lung, and found in alveolar epithelial type II (AT2) cells (Barkauskas, C. E. et al., 2013. J Clin Invest 123, 3025-3036). […] The expression of the AT1 cells marker podoplanin (also known as T1α, PDPN), a membranal mucin-type sialoglycoprotein (Barkauskas et al., ibid), was also assessed (FIG. 4D, 4E). […] (FIG. 4F) Photomicrograph of si-hSMAC-A-treated tumor stained with toluidine blue. Arrows indicate glandular-like clusters surrounded by a chain of cells.
# In contrast, in si-NT-TTs, the CD31-positive cells were flattened and randomly dispersed over the entire area of the tumor tissue (FIG. 7G). The results of the histological analysis could reflect a scenario whereby si-NT-TTs CD31-positive cells are involved in the process of tumor angiogenesis, while in si-hSMAC-A-TTs, the cellular organization more closely resembles the normal physiological alveolar endothelial arrangement designed for 02 exchange. A schematic presentation of a cross-section through alveoli is offered for comparison with the glandular/alveolar-like structures observed in the si-hSMAC-A-TTs (compare FIGS. 7H and 7I).
# Further support for this view comes from analysis of the formation of stroma in H&E-stained si-NT-TTs and si-hSMAC-A-TTs (FIG. 8).
# The sub-cellular localization of SMAC/Diablo in si-NT-TTs was further analyzed by immunofluorescence staining using anti-Cyto c antibodies as mitochondria markers and confocal microscopy (data not shown). It was found SMAC/Diablo and Cyto c were co-localized in si-NT-TTs. Here too, SMAC/Diablo was found in addition to mitochondria also in the nuclei.
# MDA-MB-231 cells = assay: SRB cell growth assay, MDA-MB-231; type: cell-based, human; settings: 100 nM
# Procedure: FIGS. 5A-5G depict that si-hSMAC-A inhibited cell growth in vitro and tumor growth of breast cancer xenografts: (FIG. A) MDA-MB-231 cells were transfected with si-NT (50 nM) or si-hSMAC-A (100 nM) and analyzed for cell growth at the indicated time using the SRB method (n=3) (Control (●), si-NT (◯), si-hSMAC-A (▴); (FIG. 5B) MDA-MB-231 cells were transfected with si-NT or si-hSMAC-A and at the indicated time cells were harvested and analyzed for SMAC/Diablo levels by immunoblotting. (3-actin was used as a loading control; (FIG. 5C) MDA-MB-231 cells (3×10^6 cells/mouse) were inoculated into nude mice. Tumor volumes were monitored (using a digital caliper) and on day 18, the mice were divided into two groups (n=8 each) with each mouse in the group containing a tumor with a volume between 60 and 100 mm^3 and similar average volumes measured per group. […] (FIG. 5D) Represents photomicrograph of dissected tumors from mouse MDA-MB-231 cell xenografts treated with si-NT or si-hSMAC-A; (FIG. 5E) Bar-graph represents dissected tumors weight from MDA-MB-231 cell xenografts; calculated average tumor volumes are presented as means±SEM, ***P<0.001 (FIG. 5F, FIG. 5G) Dissected tumors were subjected to immunohistochemistry. […]
# Twenty-four hours post-transfection with si-NT or si-hSMAC, cells (10,000/well) were counted and seeded in 96-well plates. […]
substance,measurement,setting,value
"si-hSMAC-A: siRNA to human SMAC/Diablo; sense 5′AAGCGGUGUUUCUCAGAAUUGtt3′ (SEQ ID NO:20), antisense 5′AACAAUUCUGAGAAACCCGCtt3′ (SEQ ID NO:21) (sense AAGCGGUGUUUCUCAGAAUUGTT; antisense AACAAUUCUGAGAAACCCGCTT; sense: sugars from the 5' end r21 d2, backbone not given here; antisense: sugars from the 5' end r20 d2, backbone not given here)",reduction of cellular ATP levels,[1],20-35%
same,SMAC/Diablo by immunofluorescence in tumors,"[2]; mouse, in vivo",no SMAC/Diablo was detected
same,expression of AT1 marker podoplanin,"[2]; mouse, in vivo",higher expression levels
same,organization of CD31-positive cells,"[2]; mouse, in vivo",organized in a manner resembling lung alveoli
same,staining for α-SMA,"[2]; mouse, in vivo",significantly reduced
same,"stromal structures, H&E","[2]; mouse, in vivo","massive fibrotic structures, resembling scar tissue"
same,"tumor cell organization, H&E","[2]; mouse, in vivo","organized in glandular-like clusters, surrounded by a chain of cells"
same,vascular formations in stromal structures,"[2]; mouse, in vivo",barely noticeable
same,staining of SP-C,[2]; vs si-NT-TTs,No significant differences
same,staining with Sirius red and of vimentin,[2]; vs si-NT-TTs,appeared to be similar
same,cell growth in vitro,MDA-MB-231 cells,inhibited
